Laboratory results published in patent EP4273147A1, “SUBSTITUTED SPIROLACTAMS, SALTS THEREOF AND THEIR USE AS HERBICIDALLY ACTIVE SUBSTANCES” (Bayer Aktiengesellschaft, priority 2022, dated 2023).

Columns and labels:
POAAN [1] = test: Herbicidal pre-emergence action (Table A7); assay type: in vivo, Poa annua; details: application rate 320 g/ha; visual grading after ca. 3 weeks
Outline: (§1)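 Pots: sandy loam. Sowing: one mono- and one dicot weed species together per pot. Seeds covered with soil.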

LOLRI [2] = test: Herbicidal pre-emergence action (Table A3); assay type: in vivo, Lolium rigidum; details: visual grading after ca. 3 weeks
Outline: as §1

ECHCG [3] = test: Herbicidal pre-emergence action (Table A2); assay type: in vivo, Echinochloa crus-galli; details: application rate 320 g/ha; visual grading after ca. 3 weeks
Outline: as §1

ALOMY [4] = test: Herbicidal post-emergence action (Table B2); assay type: in vivo, Alopecurus myosuroides; details: application rate 1280 g/ha; rated visually after about 3 weeks
Experimental: (§2) Seeds of mono- and dicotyledonous weed plants were placed in plastic pots in sandy loam soil (doubly sown with in each case one species of mono- or dicotyledonous weed plants per pot), covered with soil and cultivated in a greenhouse under controlled growth conditions. 2 to 3 weeks after sowing, the test plants were treated at the one-leaf stage. […] After the test plants had been kept in the greenhouse under optimum growth conditions for about 3 weeks, the activity of the preparations was rated visually in comparison to untreated controls. For example, 100% activity = the plants have died, 0% activity = like control plants.

POAAN [5] = test: Herbicidal post-emergence action (Table B7); assay type: in vivo, Poa annua; details: application rate 1280 g/ha
Outline: (§3)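 Greenhouse pot test in sandy loam; weeds sown, treated post-emergence at one-leaf stage 2–3 weeks after sowing. Activity rated visually about 3 weeks later versus untreated controls, 100% = plants dead, 0% = like controls.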

VERPE [6] = test: Herbicidal post-emergence action (Table B10); assay type: in vivo, Veronica persica
Outline: as §3

SETVI [7] = test: Herbicidal pre-emergence action (Table A5); assay type: in vivo, Setaria viridis; details: visual grading after ca. 3 weeks
Outline: as §1

GLXMA [8] = test: Post-emergence effects on crop plants (Table F4); assay type: in vivo, Glycine max; details: application rate 320 g/ha, crop plant GLXMA
Text: (§4) 2 to 3 weeks after sowing, the test plants were sprayed in the single-leaf stage.

ORYZA [9] = test: Pre-emergence effects on crop plants (Table D3); details: crop plant; application rate 80 g/ha; visual grading after ca. 3 weeks
VERPE [10] = test: Herbicidal post-emergence action, section E (Table E9); assay type: in vivo, Veronica persica; details: application rate 320 g/ha; assessed visually after ca. 3 weeks
Text: as §4

ORYZA [11] = test: Post-emergence effects on crop plants (Table F3); assay type: in vivo, Oryza sativa; details: application rate 320 g/ha, crop plant ORYZA
Text: as §4

ECHCG [12] = test: Herbicidal pre-emergence action, section C (Table C6); assay type: in vivo, Echinochloa crus-galli; details: application rate 80 g/ha; visual grading after ca. 3 weeks
MATIN [13] = test: Herbicidal post-emergence action (Table B6); assay type: in vivo, Matricaria inodora; details: application rate 1280 g/ha; rated visually after about 3 weeks
Outline: as §3

ALOMY [14] = test: Herbicidal pre-emergence action (Table A9); assay type: in vivo, Alopecurus myosuroides; details: application rate 1280 g/ha; visual grading after ca. 3 weeks
Outline: as §1

VIOTR [15] = test: Herbicidal pre-emergence action, section C (Table C12); assay type: in vivo, Viola tricolor; details: application rate 80 g/ha; visual grading after ca. 3 weeks
ZEAMX [16] = test: Pre-emergence effects on crop plants (Table D1); assay type: in vivo, Zea mays; details: crop plant; application rate 320 g/ha; visual grading after ca. 3 weeks
DIGSA [17] = test: Herbicidal pre-emergence action, section C (Table C5); assay type: in vivo, Digitaria sanguinalis; details: application rate 80 g/ha; visual grading after ca. 3 weeks
Text: (§5) Seeds of mono- and dicotyledonous weed plants and crop plants were sown, in plastic or organic planting pots, in sandy loam and covered with soil. The compounds according to the invention, formulated in the form of wettable powders (WP) or as emulsifiable concentrates (EC), were applied to the surface of the covering soil as aqueous suspension or emulsion, with the addition of 0.5% of an additive, at an application rate of 600 1 of water/ha (converted). Following treatment, the pots were placed in a greenhouse and kept under optimum growth conditions for the test plants.

LOLRI [18] = test: Herbicidal pre-emergence action, section C (Table C7); assay type: in vivo, Lolium rigidum; details: application rate 320 g/ha; visual grading after ca. 3 weeks
ECHCG [19] = test: Herbicidal post-emergence action (Table B3); assay type: in vivo, Echinochloa crus-galli; details: application rate 1280 g/ha; rated visually after about 3 weeks
Outline: as §3

LOLRI [20] = test: Herbicidal post-emergence action (Table B5); assay type: in vivo, Lolium rigidum; details: application rate 1280 g/ha; rated visually after about 3 weeks
Experimental: as §2

GLXMA [21] = test: Pre-emergence effects on crop plants (Table D4); assay type: in vivo, Glycine max; details: crop plant; application rate 320 g/ha; visual grading after ca. 3 weeks
Text: (§6) Seeds of mono- and dicotyledonous weed plants and crop plants were sown, in plastic or organic planting pots, in sandy loam and covered with soil. The compounds according to the invention, formulated in the form of wettable powders (WP) or as emulsifiable concentrates (EC), were applied to the surface of the covering soil as aqueous suspension or emulsion, with the addition of 0.5% of an additive, at an application rate of 600 1 of water/ha (converted).
(§7) Following treatment, the pots were placed in a greenhouse and kept under optimum growth conditions for the test plants.

BRSNW = test: Pre-emergence effects on crop plants (Table D5); assay type: in vivo, Brassica napus; details: crop plant; application rate 80 g/ha; visual grading after ca. 3 weeks
Text: as §6, §7

ALOMY [22] = test: Herbicidal pre-emergence action, section C (Table C2); assay type: in vivo, Alopecurus myosuroides; details: application rate 320 g/ha; visual grading after ca. 3 weeks
MATIN [23] = test: Herbicidal pre-emergence action (Table A4); assay type: in vivo, Matricaria inodora; details: application rate 1280 g/ha; visual grading after ca. 3 weeks
Outline: as §1

VIOTR [24] = test: Herbicidal post-emergence action, section E (Table E10); assay type: in vivo, Viola tricolor; details: application rate 320 g/ha; assessed visually after ca. 3 weeks
Text: as §4

SETVI [25] = test: Herbicidal pre-emergence action, section C (Table C10); assay type: in vivo, Setaria viridis; details: application rate 320 g/ha; visual grading after ca. 3 weeks
Text: as §5

ZEAMX [26] = test: Post-emergence effects on crop plants (Table F1); assay type: in vivo, Zea mays; details: application rate 320 g/ha, crop plant ZEAMX
Text: as §4

VERPE [27] = test: Herbicidal pre-emergence action, section C (Table C11); assay type: in vivo, Veronica persica; details: application rate 320 g/ha; visual grading after ca. 3 weeks
TRZAS = test: Post-emergence effects on crop plants (Table F2); assay type: in vivo, Triticum aestivum; details: application rate 320 g/ha, crop plant TRZAS
Text: as §4

DIGSA [28] = test: Herbicidal pre-emergence action (Table A12); assay type: in vivo, Digitaria sanguinalis; details: application rate 320 g/ha; visual grading after ca. 3 weeks
Outline: as §1

STEME = test: Herbicidal pre-emergence action (Table A6); assay type: in vivo, Stellaria media; details: application rate 320 g/ha; visual grading after ca. 3 weeks
Outline: as §1

O=C1N(Cc2ccccc2F)CCCC12CCCN(Cc1ccccc1Br)C2=O (racemic) [I-042]
pre-emergence activity against POAAN (POAAN [1]): 100% | pre-emergence activity against LOLRI (LOLRI [2]; application rate 1280 g/ha): 100% | pre-emergence activity against ECHCG (ECHCG [3]): 100% | post-emergence activity against ALOMY (ALOMY [4]): 90% | post-emergence activity against POAAN (POAAN [5]): 90% | post-emergence activity against VERPE (VERPE [6]; application rate 1280 g/ha): 90% | pre-emergence activity against SETVI (SETVI [7]; application rate 320 g/ha): 90%

O=C1N(Cc2ccccc2Cl)CCC12CCCN(Cc1c(F)cccc1F)C2=O (racemic) [I-045]
post-emergence activity against GLXMA (GLXMA [8]): 0% | pre-emergence activity against ORYZA (ORYZA [9]): 0% | post-emergence activity against VERPE (VERPE [10]): 80% | pre-emergence activity against POAAN (POAAN [1]): 100% | post-emergence activity against ORYZA (ORYZA [11]): 0% | pre-emergence activity against ECHCG (ECHCG [12]): 90% | post-emergence activity against MATIN (MATIN [13]): 90% | pre-emergence activity against ALOMY (ALOMY [14]): 90% | pre-emergence activity against VIOTR (VIOTR [15]): 90% | pre-emergence activity against LOLRI (LOLRI [2]; application rate 1280 g/ha): 100% | pre-emergence activity against ZEAMX (ZEAMX [16]): 0% | pre-emergence activity against DIGSA (DIGSA [17]): 80% | pre-emergence activity against LOLRI (LOLRI [18]): 90% | post-emergence activity against ECHCG (ECHCG [19]): 90% | post-emergence activity against LOLRI (LOLRI [20]): 90% | pre-emergence activity against GLXMA (GLXMA [21]): 0% | pre-emergence activity against BRSNW (BRSNW): 0% | pre-emergence activity against ALOMY (ALOMY [22]): 100% | post-emergence activity against POAAN (POAAN [5]): 90% | pre-emergence activity against MATIN (MATIN [23]): 90% | post-emergence activity against VIOTR (VIOTR [24]): 80% | pre-emergence activity against SETVI (SETVI [25]): 100% | post-emergence activity against ZEAMX (ZEAMX [26]): 0% | pre-emergence activity against SETVI (SETVI [7]; application rate 1280 g/ha): 100% | pre-emergence activity against VERPE (VERPE [27]): 80% | post-emergence activity against TRZAS (TRZAS): 0% | pre-emergence activity against DIGSA (DIGSA [28]): 90% | pre-emergence activity against STEME (STEME): 90%

O=C1N(Cc2ccccc2Br)CCCC12CCCN(Cc1cccc(F)c1F)C2=O (racemic) [I-055]
pre-emergence activity against LOLRI (LOLRI [2]; application rate 320 g/ha): 100% | post-emergence activity against ECHCG (ECHCG [19]): 90% | pre-emergence activity against ECHCG (ECHCG [3]): 100% | post-emergence activity against ALOMY (ALOMY [4]): 90% | post-emergence activity against VERPE (VERPE [6]; application rate 320 g/ha): 90% | pre-emergence activity against SETVI (SETVI [7]; application rate 320 g/ha): 90%
